Test results published in paper PMC6214909, “An asparagine/glycine switch governs product specificity of human N-terminal methyltransferase NTMT2” (Communications Biology, 2018).

Assays:
NTMT2-N89G mutant = assay: MALDI-MS methyltransferase activity assay, NTMT2-N89G mutant; format: biochemical, human; conditions: NTMT2-N89G under the same conditions (2 μM enzyme, 10 μM peptide, 200 μM SAM, pH 7.5, 37 °C, overnight)
Description: (§1) A mixture (36 μL) of 2 μM enzyme (NTMT1 or NTMT2), 25 mM Tris–HCl pH 7.5, 50 mM KCl and 200 μM SAM was incubated at 37 °C for 5 min. 4 μL of 100 μM peptide substrate (final concentration 10 μM) was then added to initiate the reaction. The reaction was incubated overnight and then stopped with quenching solution (20 mM NH4H2PO4, 0.4% (v/v) TFA in 1:1 acetonitrile/water). Reaction mixtures were analyzed with an Applied Biosystems Voyager matrix-assisted laser desorption/ionization time-of-flight mass spectrometer. Processing of all spectra results in Data Explorer included application of a noise filter (correlation factor of 1.0) and a baseline correction. Areas of the monoisotopic peaks for all relevant species were combined to obtain a total area for each sample. The fraction of each methylation state was calculated by summing the areas of all the monoisotopic peaks for that state ([M + H]^+, [M + Na]^+, [M + K]^+, [M – H + 2Na]^+, [M – H + 2 K]^+, and [M – H + Na + K]^+) and then dividing by the total area.

NTMT2 = biological target: T1, NTMT2 (Homo sapiens, UniProt Q5VVY1); assay: MALDI-MS methyltransferase activity assay, NTMT2; format: biochemical; conditions: 2 μM NTMT2, 10 μM peptide, 200 μM SAM, 25 mM Tris–HCl pH 7.5, 50 mM KCl, 37 °C, overnight
T1 construct: DNA encoding human NTMT2 (residues 58–278) was amplified by PCR; SUMO (His8-SUMO of the pET28-MKH8SUMO vector, with TEV site) (N, cleaved yes); made in house; host or cells: Escherichia coli BL21 (DE3)
T1 sequence (Q5VVY1 58-278): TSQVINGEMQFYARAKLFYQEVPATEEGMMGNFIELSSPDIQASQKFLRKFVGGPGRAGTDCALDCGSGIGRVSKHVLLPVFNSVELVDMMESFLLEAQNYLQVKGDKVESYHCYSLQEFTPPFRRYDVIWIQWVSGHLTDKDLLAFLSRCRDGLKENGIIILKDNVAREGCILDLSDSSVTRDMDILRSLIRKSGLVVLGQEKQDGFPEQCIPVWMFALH
Description: as §1

NTMT1 = assay: MALDI-MS methyltransferase activity assay, NTMT1; format: biochemical, human; conditions: 2 μM NTMT1, 10 μM peptide, 200 μM SAM, 25 mM Tris–HCl pH 7.5, 50 mM KCl, 37 °C, overnight
Description: as §1

Di-methylated fraction (NTMT2-N89G mutant) | Mono-methylated fraction (NTMT2-N89G mutant) | Trimethylated fraction (NTMT2-N89G mutant) | Unmethylated fraction (NTMT2-N89G mutant) | Di-methylated fraction (NTMT2) | Mono-methylated fraction (NTMT2) | Trimethylated fraction (NTMT2) | Unmethylated fraction (NTMT2) | Di-methylated fraction (NTMT1) | Mono-methylated fraction (NTMT1) | Trimethylated fraction (NTMT1) | Unmethylated fraction (NTMT1) | Substance
26.21% | 71.86% | 1.93% | 0.00% | 0.00% | 32.17% | 0.00% | 67.83% | 0.00% | 0.00% | 100.00% | 0.00% | APKRIA [synthetic XPKRIA hexapeptide substrate, X = A]
0.00% | 63.38% | 0.00% | 36.62% | 0.00% | 25.20% | 0.00% | 74.80% | 44.61% | 27.87% | 0.00% | 27.51% | CPKRIA [synthetic XPKRIA hexapeptide substrate, X = C]
0.00% | 0.00% | 0.00% | 100.00% | 0.00% | 0.00% | 0.00% | 100.00% | 0.00% | 9.37% | 0.00% | 90.64% | DPKRIA [synthetic XPKRIA hexapeptide substrate, X = D]
0.00% | 0.00% | 0.00% | 100.00% | 0.00% | 0.00% | 0.00% | 100.00% | 0.00% | 10.70% | 0.00% | 89.30% | EPKRIA [synthetic XPKRIA hexapeptide substrate, X = E]
0.00% | 100.00% | 0.00% | 0.00% | 0.00% | 50.22% | 0.00% | 49.78% | 97.34% | 0.00% | 2.66% | 0.00% | FPKRIA [synthetic XPKRIA hexapeptide substrate, X = F]
19.61% | 6.64% | 60.27% | 13.49% | 20.14% | 15.31% | 27.94% | 36.61% | 0.00% | 0.00% | 100.00% | 0.00% | GPKRIA [synthetic XPKRIA hexapeptide substrate, X = G]
1.61% | 98.39% | 0.00% | 0.00% | 0.00% | 39.05% | 0.00% | 60.95% | 100.00% | 0.00% | 0.00% | 0.00% | HPKRIA [synthetic XPKRIA hexapeptide substrate, X = H]
0.00% | 5.08% | 0.00% | 94.92% | 0.00% | 0.00% | 0.00% | 100.00% | 20.10% | 43.34% | 0.00% | 36.56% | IPKRIA [synthetic XPKRIA hexapeptide substrate, X = I]
0.00% | 20.40% | 0.00% | 79.60% | 0.00% | 5.19% | 0.00% | 94.81% | 96.14% | 0.00% | 3.86% | 0.00% | KPKRIA [synthetic XPKRIA hexapeptide substrate, X = K]
0.00% | 18.14% | 0.00% | 81.86% | 0.00% | 3.16% | 0.00% | 96.84% | 70.78% | 26.28% | 2.94% | 0.00% | LPKRIA [synthetic XPKRIA hexapeptide substrate, X = L]
0.00% | 100.00% | 0.00% | 0.00% | 0.00% | 41.45% | 0.00% | 58.55% | 91.26% | 0.00% | 8.74% | 0.00% | MPKRIA [synthetic XPKRIA hexapeptide substrate, X = M]
0.00% | 21.58% | 0.00% |  | 0.00% | 0.00% | 0.00% | 100.00% | 100.00% | 0.00% | 0.00% | 0.00% | NPKRIA [synthetic XPKRIA hexapeptide substrate, X = N]
4.45% | 65.75% | 0.00% |  | 10.19% | 38.00% | 0.00% | 51.81% | 100.00% | 0.00% | 0.00% | 0.00% | PPKRIA [synthetic XPKRIA hexapeptide substrate, X = P]
0.00% | 32.39% | 0.00% | 67.61% | 0.00% | 0.00% | 0.00% | 100.00% | 100.00% | 0.00% | 0.00% | 0.00% | QPKRIA [synthetic XPKRIA hexapeptide substrate, X = Q]
